# In ChEMBL document CHEMBL6103552, “Identification of peptide-based hepatitis B virus capsid inhibitors based on the viral core protein” (Bioorg Med Chem Lett, 2025):
# Activity calls are given as the source filed them. The rule behind the calls is not given here. Residues, ends and D or L forms follow the SMILES beside them.
# Biological target: Core antigen (Hepatitis B virus) (UniProt Q03732)
# Assay: Inhibition of Hepatitis B virus capsid formation at 100 uM treated during cell-free wild type HBV Cp synthesis using wheat germ lysates and HBV Cp RNA by Native capsid assay based western blot analysis
# Assay type: subcellular
# Chain of Core antigen (Hepatitis B virus) (Q03732 as listed by the source): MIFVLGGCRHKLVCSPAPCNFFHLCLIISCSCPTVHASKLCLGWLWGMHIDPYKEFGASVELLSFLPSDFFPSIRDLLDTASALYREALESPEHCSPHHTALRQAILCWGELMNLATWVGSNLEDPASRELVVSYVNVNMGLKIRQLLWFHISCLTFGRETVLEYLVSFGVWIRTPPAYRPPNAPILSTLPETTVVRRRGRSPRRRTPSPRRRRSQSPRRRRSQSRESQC
row,SMILES,inhibition
1,CC(=O)N[C@@H](CC(C)C)C(=O)N[C@@H](CCC(=O)O)C(=O)N[C@@H](CC(=O)O)C(=O)N1CCC[C@H]1C(=O)N[C@@H](C)C(=O)N[C@@H](CO)C(=O)N[C@@H](CCCNC(=N)N)C(=O)N[C@@H](CCC(=O)O)C(=O)N[C@@H](CC(C)C)C(=O)N[C@H](C(=O)N[C@H](C(=O)N[C@@H](CO)C(=O)N[C@@H](Cc1ccc(O)cc1)C(=O)N[C@H](C(=O)N[C@@H](CC(N)=O)C(N)=O)C(C)C)C(C)C)C(C)C,inactive
2,CC(=O)N[C@@H](CO)C(=O)N[C@H](C(=O)N[C@@H](CC(C)C)C(=O)N1CCC[C@H]1C(=O)N[C@@H](CCC(=O)O)C(=O)N[C@H](C(=O)N[C@H](C(=O)N[C@H](C(=O)N[C@H](C(=O)N[C@@H](CCCNC(=N)N)C(=O)N[C@@H](CCCNC(=N)N)C(=O)N[C@@H](CCCNC(=N)N)C(=O)NCC(=O)N[C@@H](CCCNC(=N)N)C(=O)N[C@@H](CO)C(N)=O)C(C)C)C(C)C)[C@@H](C)O)[C@@H](C)O)[C@@H](C)O,inactive
3,CC(=O)N[C@@H](Cc1c[nH]c2ccccc12)C(=O)N[C@H](C(=O)NCC(=O)N[C@@H](CO)C(=O)N[C@@H](CC(N)=O)C(=O)N[C@@H](CC(C)C)C(=O)N[C@@H](CCC(=O)O)C(=O)N[C@@H](CC(=O)O)C(=O)N1CCC[C@H]1C(=O)N[C@@H](C)C(=O)N[C@@H](CO)C(=O)N[C@@H](CCCNC(=N)N)C(=O)N[C@@H](CCC(=O)O)C(=O)N[C@@H](CC(C)C)C(=O)N[C@H](C(N)=O)C(C)C)C(C)C,inactive
4,CC[C@H](C)[C@H](NC(=O)[C@@H]1CCCN1C(=O)[C@H](C)NC(=O)[C@H](CC(N)=O)NC(C)=O)C(=O)N[C@@H](CC(C)C)C(=O)N[C@@H](CO)C(=O)N[C@H](C(=O)N[C@@H](CC(C)C)C(=O)N1CCC[C@H]1C(=O)N[C@@H](CCC(=O)O)C(=O)N[C@H](C(=O)N[C@H](C(=O)N[C@H](C(=O)N[C@H](C(=O)N[C@@H](CCCNC(=N)N)C(N)=O)C(C)C)C(C)C)[C@@H](C)O)[C@@H](C)O)[C@@H](C)O,inactive
5,CC[C@H](C)[C@H](NC(=O)[C@H](C)NC(=O)[C@H](CCC(N)=O)NC(=O)[C@@H]1CCCN1C(C)=O)C(=O)N[C@@H](CC(C)C)C(=O)N[C@@H](CS)C(=O)N[C@@H](Cc1c[nH]c2ccccc12)C(=O)NCC(=O)N[C@@H](CCC(=O)O)C(=O)N[C@@H](CC(C)C)C(=O)N[C@@H](CCSC)C(=O)N[C@@H](CC(N)=O)C(=O)N[C@@H](CC(C)C)C(=O)N[C@@H](C)C(=O)N[C@H](C(N)=O)[C@@H](C)O,inactive
6,CC[C@H](C)[C@H](NC(=O)[C@H](CO)NC(C)=O)C(=O)N[C@@H](CCCNC(=N)N)C(=O)N[C@@H](CC(=O)O)C(=O)N[C@@H](CC(C)C)C(=O)N[C@@H](CC(C)C)C(=O)N[C@@H](CC(=O)O)C(=O)N[C@H](C(=O)N[C@@H](C)C(=O)N[C@@H](CO)C(=O)N[C@@H](C)C(=O)N[C@@H](CC(C)C)C(=O)N[C@@H](Cc1ccc(O)cc1)C(=O)N[C@@H](CCCNC(=N)N)C(=O)N[C@@H](CCC(=O)O)C(N)=O)[C@@H](C)O,inactive
7,CC[C@H](C)[C@H](NC(=O)[C@H](Cc1c[nH]c2ccccc12)NC(=O)[C@@H](NC(=O)CNC(=O)[C@H](Cc1ccccc1)NC(=O)[C@H](CO)NC(C)=O)C(C)C)C(=O)N[C@@H](CCCNC(=N)N)C(=O)N[C@H](C(=O)N1CCC[C@H]1C(=O)N1CCC[C@H]1C(=O)N[C@@H](C)C(=O)N[C@@H](Cc1ccc(O)cc1)C(=O)N[C@@H](CCCNC(=N)N)C(=O)N1CCC[C@H]1C(=O)N1CCC[C@H]1C(N)=O)[C@@H](C)O,inactive
8,CSCC[C@H](NC(=O)[C@H](CC(C)C)NC(=O)[C@H](CCC(=O)O)NC(=O)CNC(=O)[C@H](Cc1c[nH]c2ccccc12)NC(=O)[C@H](CS)NC(C)=O)C(=O)N[C@@H](CC(N)=O)C(=O)N[C@@H](CC(C)C)C(=O)N[C@@H](C)C(=O)N[C@H](C(=O)N[C@@H](Cc1c[nH]c2ccccc12)C(=O)N[C@H](C(=O)NCC(=O)N[C@@H](CO)C(=O)N[C@@H](CC(N)=O)C(N)=O)C(C)C)[C@@H](C)O,inactive
9,CSCC[C@H](NC(=O)[C@H](CC(N)=O)NC(=O)[C@@H](NC(=O)[C@H](CC(N)=O)NC(=O)[C@@H](NC(=O)[C@H](Cc1ccc(O)cc1)NC(=O)[C@H](CO)NC(=O)[C@@H](NC(=O)[C@@H](NC(=O)[C@H](CC(C)C)NC(=O)[C@H](CCC(=O)O)NC(=O)[C@H](CCCNC(=N)N)NC(=O)[C@H](CO)NC(C)=O)C(C)C)C(C)C)C(C)C)C(C)C)C(=O)NCC(=O)N[C@@H](CC(C)C)C(N)=O,inactive
10,CSCC[C@H](NC(C)=O)C(=O)N[C@@H](CC(N)=O)C(=O)N[C@@H](CC(C)C)C(=O)N[C@@H](C)C(=O)N[C@H](C(=O)N[C@@H](Cc1c[nH]c2ccccc12)C(=O)N[C@H](C(=O)NCC(=O)N[C@@H](CO)C(=O)N[C@@H](CC(N)=O)C(=O)N[C@@H](CC(C)C)C(=O)N[C@@H](CCC(=O)O)C(=O)N[C@@H](CC(=O)O)C(=O)N1CCC[C@H]1C(=O)N[C@@H](C)C(N)=O)C(C)C)[C@@H](C)O,inactive
11,CC(=O)N[C@@H](C)C(=O)N[C@@H](CC(C)C)C(=O)N[C@@H](CCC(=O)O)C(=O)N[C@@H](CO)C(=O)N1CCC[C@H]1C(=O)N[C@@H](CCC(=O)O)C(=O)N[C@@H](Cc1c[nH]cn1)C(=O)N[C@@H](CS)C(=O)N[C@@H](CO)C(=O)N1CCC[C@H]1C(=O)N[C@@H](Cc1c[nH]cn1)C(=O)N[C@@H](Cc1c[nH]cn1)C(=O)N[C@H](C(=O)N[C@@H](C)C(=O)N[C@@H](CC(C)C)C(N)=O)[C@@H](C)O (Ac-ALESPEHCSPHHTAL-NH2),inactive
12,CC(=O)N[C@@H](C)C(=O)N[C@@H](CC(C)C)C(=O)N[C@@H](Cc1ccc(O)cc1)C(=O)N[C@@H](CCCNC(=N)N)C(=O)N[C@@H](CCC(=O)O)C(=O)N[C@@H](C)C(=O)N[C@@H](CC(C)C)C(=O)N[C@@H](CCC(=O)O)C(=O)N[C@@H](CO)C(=O)N1CCC[C@H]1C(=O)N[C@@H](CCC(=O)O)C(=O)N[C@@H](Cc1c[nH]cn1)C(=O)N[C@@H](CS)C(=O)N[C@@H](CO)C(=O)N1CCC[C@H]1C(N)=O (Ac-ALYREALESPEHCSP-NH2),inactive
13,CC[C@H](C)[C@H](NC(=O)[C@@H]1CCCN1C(=O)[C@H](C)NC(=O)[C@H](CC(N)=O)NC(=O)[C@@H]1CCCN1C(=O)[C@@H]1CCCN1C(=O)[C@H](CCCNC(=N)N)NC(=O)[C@H](Cc1ccc(O)cc1)NC(=O)[C@H](C)NC(C)=O)C(=O)N[C@@H](CC(C)C)C(=O)N[C@@H](CO)C(=O)N[C@H](C(=O)N[C@@H](CC(C)C)C(=O)N1CCC[C@H]1C(=O)N[C@@H](CCC(=O)O)C(N)=O)[C@@H](C)O (Ac-AYRPPNAPILSTLPE-NH2),inactive
14,CC[C@H](C)[C@H](NC(=O)[C@H](C)NC(=O)[C@H](CCC(N)=O)NC(=O)[C@@H]1CCCN1C(=O)[C@H](CC(C)C)NC(=O)[C@H](C)NC(=O)[C@@H](NC(=O)[C@H](Cc1c[nH]cn1)NC(=O)[C@H](Cc1c[nH]cn1)NC(=O)[C@@H]1CCCN1C(=O)[C@H](CO)NC(=O)[C@H](CS)NC(=O)[C@H](Cc1c[nH]cn1)NC(=O)[C@H](CCC(=O)O)NC(C)=O)[C@@H](C)O)C(=O)N[C@@H](CC(C)C)C(N)=O (Ac-EHCSPHHTALPQAIL-NH2),inactive
15,CC(=O)NCC(=O)N[C@@H](CCCNC(=N)N)C(=O)N[C@@H](CCC(=O)O)C(=O)N[C@H](C(=O)N[C@H](C(=O)N[C@@H](CC(C)C)C(=O)N[C@@H](CCC(=O)O)C(=O)N[C@@H](Cc1ccc(O)cc1)C(=O)N[C@@H](CC(C)C)C(=O)N[C@H](C(=O)N[C@@H](CO)C(=O)N[C@@H](Cc1ccccc1)C(=O)NCC(=O)N[C@H](C(=O)N[C@@H](Cc1c[nH]c2ccccc12)C(N)=O)C(C)C)C(C)C)C(C)C)[C@@H](C)O (Ac-GRETVLEYLVSFGVW-NH2),inactive
